Legend:
[1] = test system: human ES cell-derived neural progenitor cells; test: Quantitative PCR transcriptional profile after differentiation with retinoic acid
[2] = test system: human ES cell-derived FOXA2 expressing neural progenitor cells; test: Immunocytochemistry and cell counts of FOXA2 expressing DA neurons at DIV49; format: cell-based
Experimental: Media were changed every 2 days.
Neural progenitor cells were differentiated toward the DA neuron phenotype with mouse sonic hedgehog (Shh-N), human activated sonic hedgehog (C24II SHH-N), mouse fibroblast growth factor 8b (FGF8b), human FGF8A (all from R&D Systems, Inc.), 20 ng/ml brain derived neurotrophic factor (BDNF) (PeproTech EC Ltd), 1 ng/ml transforming growth factor type β3 (TGF-β3) (Calbiochem, San Diego, Calif.), 10 ng/ml glial cell line-derived neurotrophic factor (GDNF), 0.5 mM dibutyryl cAMP, and 0.2 mM ascorbic acid (AA) (all from Sigma-Aldrich). After 21 days (Day 35) cells were passaged using Tryple (Invitrogen Corporation) and spun at 1,000 rpm for 5 minutes. Cells were resuspended in N2 medium and plated again at a density of approximately 1,000,000-2,000,000 cells per well (24 well plate) on polyornithine/laminin-coated dishes in the presence of BDNF, AA, SHH, and FGF8. After an additional 7 days of culture (DIV42), cells were differentiated until Day 49 without SHH and FGF8 but in the presence of BDNF, AA, cAMP, GDNF, and TGF-β3.
Cells were fixed in 4% paraformaldehyde and analyzed by indirect immunofluorescence (Sonntag et al., 2005). Fluorescent signals were examined using an LSM510 Meta confocal microscope equipped with ultraviolet, argon, and helium-neon lasers (Carl Zeiss, Thornwood, N.Y.). […]
Quantitative analysis of immunocytochemistry was performed on randomly selected confocal fields from at least two independent differentiation experiments. In each field, images of separate channels (Hoechst, 488, 568, 594) were acquired at 40× magnification on an integrated confocal microscope (LSM510/Meta, Carl Zeiss) and stereology workstation (StereoInvestigator, MBF Bioscience, Inc., Williston, Vt.), where images of cells in independent channels and merged images were counted.

Question: What does the source list for `CC1=C(/C=C/C(C)=C/C=C/C(C)=C/C(=O)O)C(C)(C)CCC1` [RA, all-trans retinoic acid]?
Answer: OTX2, PAX2 and HOXB1 levels ([1]; 10^-6 M and 10^-7 M RA, 22 days of differentiation, relative to conditions without RA): reduced OTX2 and PAX2 levels and increased HOXB1 levels; increase of expression levels of the midbrain transcription factor EN1 ([1]; 10^-8 M RA, 22 days of differentiation, relative to conditions without RA): more than 2000 fold; expression levels of the ventral neural transcription factor FOXA2 ([1]; all RA conditions tested (0, 10^-6 to 10^-9 M)): consistently low

B1: WNT1: secreted signaling protein encoded by the human WNT1 proto-oncogene; recombinant (protein, UniProt P04628 28-370, looked up)
Proto-oncogene Wnt-1: ANSSGRWWGIVNVASSTNLLTDSKSLQLVLEPSLQLLSRKQRRLIRQNPGILHSVSGGLQSAVRECKWQFRNRRWNCPTAPGPHLFGKIVNRGCRETAFIFAITSAGVTHSVARSCSEGSIESCTCDYRRRGPGGPDWHWGGCSDNIDFGRLFGREFVDSGEKGRDLRFLMNLHNNEAGRTTVFSEMRQECKCHGMSGSCTVRTCWMRLPTLRAVGDVLRDRFDGASRVLYGNRGSNRASRAELLRLEPEDPAHKPPSPHDLVYFEKSPNFCTYSGRLGTAGTAGRACNSSSPALDGCELLCCGRGHRTRTQRVTERCNCTFHWCCHVSCRNCTHTRVLHECL
Question: With B1 as the molecule, how does the “cells coexpressing FOXA2, TH and β-tubulin” value (“cells coexpressing FOXA2” below) ([2]; DIV49, cultures grown without WNT1 during first 14 days) read?
Answer: did not contain cells that coexpressed FOXA2, TH, and β-tubulin

B2: Noggin: recombinant Noggin protein (R&D Systems) (protein, UniProt Q13253 28-232, looked up)
Noggin: QHYLHIRPAPSDNLPLVDLIEHPDPIFDPKEKDLNETLLRSLLGGHYDPGFMATSPPEDRPGGGGGAAGGAEDLAELDQLLRQRPSGAMPSEIKGLEFSEGLAQGKKQRLSKKLRRKLQMWLWSQTFCPVLYAWNDLGSRFWPRYVKVGSCFSKRSCSVPEGMVCKPSKSVHLTVLRWRCQRRGGQRCGWIPIQYPIISECKCSC
Question: Which “cells coexpressing FOXA2” value ([2]; DIV49, cultures grown with Noggin alone during first 14 days) does the source give for B2 here?
Answer: did not contain cells that coexpressed FOXA2, TH, and β-tubulin

Question: And the “cells coexpressing FOXA2” value ([2]; DIV49, cultures grown with or without Noggin during first 14 days (with WNT1))?
Answer: contained cells that coexpressed FOXA2, TH and β-tubulin

Source: patent publication US9968637B2, “Dopaminergic neurons differentiated from pluripotent stem cells and uses thereof” (THE MCLEAN HOSPITAL CORPORATION, priority 2010, dated 2018)
